Tested on: SCC7 cells
Type: in vivo
Conditions: 18 days therapy
Experimental: A balb/c nude mouse (5 weeks old, male) was used as an experimental animal group, and a tumor was formed by subcutaneously inoculating SCC7 cells (1.0×10^6 cells suspended in the culture medium) into the left thigh of the mouse. When the tumor volume became approximately 50 mm^3, the tumor was used for the experiment.
For the selective therapy of cancer tissue, DOX was each loaded into L-Td55 and L-Td92, which are a carrier having cancer tissue selectivity.
The therapy experiment was performed by classifying the mice into total six groups (PBS, L-Td55, L-Td92, free DOX, DOX@L-Td55, and DOX@L-Td92), and 7 mice per group were used. Before the therapy was performed each time, the tumor volume and the mouse body weight were measured. In this case, the tumor volume was calculated by a method of (minor axis^2*major axis)/2. Each sample was injected into the caudal vein of the mice completely subjected to measurement (see Slide #2 for concentration), the therapy was performed once every three days, and the therapy was performed total 6 times.

COc1cccc2c1C(=O)c1c(O)c3c(c(O)c1C2=O)C[C@@](O)(C(=O)CO)C[C@@H]3O[C@H]1C[C@H](N)[C@H](O)[C@H](C)O1 [free DOX, doxorubicin]
Therapeutic effect: slight therapeutic effects
